US8729068B2, “Tetrahydrobenzothiophene compound” (Astellas Pharma Inc., priority 2010, dated 2014)

O=C(O)c1ccc(CCc2ccc(NC(=O)c3c(NC(=O)c4cccc(S(=O)(=O)N(C5CC5)[C@H]5CC[C@@H](C(=O)O)CC5)c4)sc4c3CCCC4)cc2)cc1 [Example 5, 4-{2-[4-({[2-({3-[(cis-4-carboxycyclohexyl)(cyclopropyl)sulfamoyl]benzoyl}amino)-4,5,6,7-tetrahydro-1-benzothiophen-3-yl]carbonyl}amino)phenyl]ethyl}benzoic acid]
melting point: 186.8 °C
